We go through three compounds from patent US6713623B2, “Tetraphosphonate bicyclic trisanhydrides” (Pharmasset, Ltd., priority 1996, dated 2004).

One data set has as its system glucuronosyltransferases. The data set can be described thus: glucuronidation by glucuronosyltransferases in vitro. The class given is in vitro ADME. Conditions: parallel experiments.
Data set [1] relates to K562 erythroleucemic cells. The data set can be described thus: anti-proliferative activity against K562 cells. The class given is cell-based. Conditions: Homo sapiens, read-out: IC50, growth of K562 cells. As for the experimental part:
The compounds of structure 1 are stable in plasma at room temperature for at least several days. It is assayed for both inhibitory activity against human IMPDH type II and for anti-proliferative activity against K562 erythroleucemic cells. […] The ability to induce differentiation in K562 cells is also estimated by determining the fraction of benzidine positive cells converted following incubation with β-methylene-MAD.

The target of a further data set is human IMPDH type II (Homo sapiens, UniProt P12268). The data set can be described thus: inhibitory activity against human IMPDH type II. The class given is biochemical. The conditions noted are these: 100 μM NAD, 50 μM IMP, 25 nM enzyme, pH 8.0; read-out: Ki, inhibitor of IMPDH type II.
In the next data set the test system is tumors. The conditions noted are these: quick conversion into the inactive β-glucuronide after administration; cited from earlier work.
The target in another data set is IMPDH type I (Homo sapiens, UniProt P20839). The conditions noted are these: Carr et al.; read-out: Ki, IMPDH type I expressed in normal cells; cited from earlier work.
Chain of IMPDH type I (P20839 whole entry): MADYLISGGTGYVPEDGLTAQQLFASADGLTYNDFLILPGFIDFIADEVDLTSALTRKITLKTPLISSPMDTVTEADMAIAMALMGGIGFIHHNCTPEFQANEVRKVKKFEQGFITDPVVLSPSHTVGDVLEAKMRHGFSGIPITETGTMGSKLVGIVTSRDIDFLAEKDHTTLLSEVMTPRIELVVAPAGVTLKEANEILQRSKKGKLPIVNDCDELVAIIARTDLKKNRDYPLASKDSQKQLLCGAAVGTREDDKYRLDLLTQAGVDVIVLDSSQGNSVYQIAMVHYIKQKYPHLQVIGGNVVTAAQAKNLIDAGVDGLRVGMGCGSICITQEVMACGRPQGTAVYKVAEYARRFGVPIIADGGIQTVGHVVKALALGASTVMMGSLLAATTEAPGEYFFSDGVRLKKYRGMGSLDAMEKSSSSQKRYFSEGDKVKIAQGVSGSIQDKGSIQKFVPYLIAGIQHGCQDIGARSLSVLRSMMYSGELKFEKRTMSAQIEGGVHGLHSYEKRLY
The next data set has as its system B and T lymphocyte. The conditions noted are these: cited from earlier work.
Data set [2] has as its system inosine monophosphate dehydrogenase (IMPDH). Conditions: Marquez et al., J. Med. Chem. 1986; cited from earlier work.

As a reminder, the IC50 is the point on the concentration scale where inhibition reaches its midpoint. By Ki is commonly meant a dissociation constant, usually derived from enzyme kinetics or from competition with a known ligand.

In the case of `COc1c(C)c2c(c(O)c1CC=C(C)CCCOP(=O)(O)CP(=O)(O)OCC1OC(n3cnc4c(N)ncnc43)C(O)C1O)C(=O)OC2` (stereo not drawn) [β-methylene-MAD, P^1-(adenosin-5-yl)-P^2-(mycophenol-5′-yl)methylenebis(phosphonate)], the “glucuronidation by various glucuronosyltransferases” value in the data set with glucuronosyltransferases is listed as “completely resistant to glucuronidation”. Further, the half-maximal inhibitory concentration (IC50) in data set [1] turned out to be 6000 nM. Further, on human IMPDH type II, the Ki came to 300 nM.

Regarding `COc1c(C)c2c(c(O)c1C/C=C(\C)CCC(=O)O)C(=O)OC2` [mycophenolic acid, Mycophenolic acid], the activity against tumors entry in the data set on tumors was “inactive”. Besides, in the data set with glucuronosyltransferases, the “glucuronidation by various glucuronosyltransferases” value is recorded as “effectively glucuronidated”. The Ki on IMPDH type I is 33 to 37 nM. Also, in the data set on B and T lymphocyte, the “B and T lymphocyte proliferation” value is given as “blocks”.

Take `NC(=O)c1csc([C@@H]2O[C@H](COP(=O)(O)CP(=O)(O)OC[C@H]3O[C@@H](n4cnc5c(N)ncnc54)[C@H](O)[C@@H]3O)[C@@H](O)[C@H]2O)n1` [β-methylene TAD]: in data set [2], the “inhibition of IMPDH” value is “potent inhibitor”.
